Measured values taken from the supplement of paper PMC10307832.

What was measured:
Assay in all cases: relative viability (nuclei count vs DMSO), 5 days (fraction); higher = more cells survive
DM3189 + Navitoclax = compound: C1CN(CCN1)C2=CC=C(C=C2)C3=CN4C(=C(C=N4)C5=CC=NC6=CC=CC=C56)N=C3 [DM3189] + CC1(C)CCC(c2ccc(Cl)cc2)=C(CN2CCN(c3ccc(C(=O)NS(=O)(=O)c4ccc(N[C@H](CCN5CCOCC5)CSc5ccccc5)c(S(=O)(=O)C(F)(F)F)c4)cc3)CC2)C1 [Navitoclax] (partner 0.5 µM)
Procedure, shortened: (§1)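 One day after seeding in 1536-well plates, lung cancer cell lines were dosed by pin tool. Dosing was either single-drug or a fixed anchor-drug dose plus five library-drug doses (not always all listed) in √10 steps. After 5 days, nuclei were stained in one fix-and-stain step and counted on 4× images, and relative viability is the nuclei count of treated wells over that of vehicle wells, given as the median of duplicate plates.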

DM3189 + Pictilisib = compound: C1CN(CCN1)C2=CC=C(C=C2)C3=CN4C(=C(C=N4)C5=CC=NC6=CC=CC=C56)N=C3 [DM3189] + CS(=O)(=O)N1CCN(Cc2cc3nc(-c4cccc5[nH]ncc45)nc(N4CCOCC4)c3s2)CC1 [Pictilisib] (partner 1 µM)
Procedure, shortened: as §1

DM3189 + Decitabine = compound: C1CN(CCN1)C2=CC=C(C=C2)C3=CN4C(=C(C=N4)C5=CC=NC6=CC=CC=C56)N=C3 [DM3189] + Nc1ncn([C@H]2C[C@H](O)[C@@H](CO)O2)c(=O)n1 [Decitabine] (partner 2 µM)
Procedure, shortened: as §1

DM3189 + OSI-027 = compound: C1CN(CCN1)C2=CC=C(C=C2)C3=CN4C(=C(C=N4)C5=CC=NC6=CC=CC=C56)N=C3 [DM3189] + COc1cccc2cc(-c3nc([C@H]4CC[C@H](C(=O)O)CC4)n4ncnc(N)c34)[nH]c12 [OSI-027] (partner 0.5 µM)
Procedure, shortened: as §1

DM3189 = compound: C1CN(CCN1)C2=CC=C(C=C2)C3=CN4C(=C(C=N4)C5=CC=NC6=CC=CC=C56)N=C3 [DM3189]
Procedure, shortened: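 Nuclei counted with MetaXpress define viability as the ratio of treated to vehicle wells, given as a median across plates. The lung cancer cell lines were in 1536-well plates, pinned with five √10-spaced library-drug doses and imaged at 4× after 5 days and Hoechst staining. Plates passed with control CV below 25% and at least one doubling.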

Cell Line | relative viability (DM3189 + Navitoclax; first compound 0.08 µM) | relative viability (DM3189 + Navitoclax; first compound 0.253 µM) | relative viability (DM3189 + Navitoclax; first compound 0.8 µM) | relative viability (DM3189 + Navitoclax; first compound 2.53 µM) | relative viability (DM3189 + Pictilisib; first compound 0.08 µM) | relative viability (DM3189 + Pictilisib; first compound 0.253 µM) | relative viability (DM3189 + Pictilisib; first compound 0.8 µM) | relative viability (DM3189 + Pictilisib; first compound 2.53 µM) | relative viability (DM3189 + Decitabine; first compound 0.08 µM) | relative viability (DM3189 + Decitabine; first compound 0.253 µM) | relative viability (DM3189 + Decitabine; first compound 0.8 µM) | relative viability (DM3189 + Decitabine; first compound 2.53 µM) | relative viability (DM3189 + OSI-027; first compound 0.08 µM) | relative viability (DM3189 + OSI-027; first compound 0.253 µM) | relative viability (DM3189 + OSI-027; first compound 0.8 µM) | relative viability (DM3189 + OSI-027; first compound 2.53 µM) | relative viability (DM3189; 0.08 µM) | relative viability (DM3189; 0.253 µM) | relative viability (DM3189; 0.8 µM) | relative viability (DM3189; 2.53 µM)
201T | 1.17 | 1.21 | 1.18 | 1.23 | 0.766 | 0.73 | 0.515 | 0.702 | 0.831 | 0.817 | 0.828 | 0.875 | 0.88 | 0.763 | 0.512 | 0.747 | 0.981 | 0.981 | 0.843 | 1.04
A-427 | 0.937 | 0.936 | 0.893 | 1.13 | 0.866 | 0.677 | 0.617 | 0.865 | 0.591 | 0.546 | 0.541 | 0.618 | 0.59 | 0.377 | 0.403 | 0.461 | 1.19 | 1 | 0.93 | 0.947
ABC-1 | – | – | – | – | 0.838 | 0.636 | 0.757 | 0.631 | 1.1 | 1.08 | 1.21 | 1.04 | 0.603 | 0.353 | 0.492 | 0.497 | 1.12 | 0.847 | 0.752 | 0.829
BEN | 0.448 | 0.0733 | 0.0662 | 0.0697 | 0.553 | 0.601 | 0.617 | 0.581 | 0.7 | 0.707 | 0.714 | 0.752 | 0.389 | 0.323 | 0.315 | 0.309 | 0.929 | 0.925 | 0.967 | 0.981
CAL-12T | 1.16 | 1.09 | 1.25 | 1.35 | 0.43 | 0.321 | 0.575 | 0.544 | – | – | – | – | 0.829 | 0.629 | 0.869 | 1 | 1.06 | 0.927 | 0.975 | 1.09
COR-L23 | 1.09 | 0.961 | 0.893 | 1 | 0.71 | 0.668 | 0.485 | 0.627 | 0.424 | 0.39 | 0.348 | 0.434 | 0.887 | 0.715 | 0.576 | 0.625 | 1.06 | 0.95 | 0.758 | 0.95
COR-L 105 | 0.861 | 0.675 | 0.729 | 0.816 | 0.52 | 0.398 | 0.361 | 0.275 | 0.781 | 0.689 | 0.535 | 0.635 | 1.21 | 0.928 | 0.789 | 0.615 | 1.22 | 0.95 | 0.853 | 0.808
ChaGo-K-1 | 1.22 | 0.971 | 1.1 | 0.825 | 0.756 | 0.67 | 0.808 | 0.584 | 0.521 | 0.507 | 0.475 | 0.537 | 0.594 | 0.607 | 0.383 | 0.589 | 1.01 | 0.997 | 0.971 | 1
EKVX | 0.816 | 0.899 | 0.9 | 1.07 | 0.483 | 0.429 | 0.413 | 0.446 | 0.331 | – | 0.359 | 0.363 | 0.769 | 0.511 | 0.729 | 0.623 | 1.21 | 0.949 | 0.887 | 1
EMC-BAC-2 | 1.13 | 1.14 | 1.13 | 1.02 | 0.587 | 0.538 | 0.507 | 0.54 | 0.954 | 0.968 | 0.909 | 1.01 | 0.403 | 0.341 | 0.359 | 0.418 | 1.09 | 0.898 | 0.936 | 1.22
EPLC-272H | 1.25 | 1.07 | 1.11 | 1.08 | 0.322 | 0.347 | 0.276 | 0.27 | 0.374 | 0.359 | 0.364 | 0.424 | 0.356 | 0.261 | 0.238 | 0.254 | 0.975 | 0.823 | 0.917 | 0.896
H3255 | 0.685 | 0.577 | 0.559 | 0.5 | 0.585 | 0.511 | 0.446 | 0.529 | 0.718 | 0.748 | 0.473 | 0.71 | 0.875 | 0.541 | 0.625 | 0.611 | 1.18 | 0.979 | 0.899 | 1.13
HARA | 1.13 | 1.09 | 1.08 | 1.21 | 0.645 | 0.362 | 0.288 | 0.35 | 0.523 | 0.574 | 0.531 | 0.555 | 0.713 | 0.525 | 0.292 | 0.539 | 1.07 | 0.921 | 1.01 | 1.04
HCC-15 | 0.687 | 0.675 | 0.646 | 0.735 | 0.764 | 0.695 | 0.584 | 0.661 | 0.648 | 0.674 | 0.571 | 0.534 | 0.757 | 0.599 | 0.524 | 0.673 | 1.07 | 0.923 | 0.91 | 0.942
HCC-44 | 1.12 | 1.11 | 0.813 | 1.44 | 0.815 | 0.615 | 0.472 | 0.752 | 0.941 | 0.904 | 0.821 | 0.934 | 0.631 | 0.482 | 0.373 | 0.596 | 1.05 | 0.957 | 0.869 | 0.934
HCC-78 | 0.877 | 0.725 | – | 0.976 | 0.206 | 0.188 | – | 0.224 | 0.723 | 0.644 | 0.632 | 0.625 | 0.383 | 0.35 | 0.371 | 0.358 | 1.03 | 0.925 | 0.845 | 0.933
HCC-366 | 0.955 | 1.06 | 0.842 | 1.04 | 0.209 | 0.134 | 0.116 | 0.137 | 0.396 | 0.293 | 0.269 | 0.341 | 0.888 | 0.856 | – | 0.808 | 1.05 | 0.905 | 0.925 | 0.989
HCC-827 | 0.958 | 0.942 | 0.887 | 1.02 | 1.19 | 1.06 | 1.02 | 1.15 | 0.34 | 0.311 | 0.324 | 0.296 | 0.886 | 0.812 | 0.842 | 0.822 | 1.02 | 1 | 0.956 | 0.983
HOP-62 | 1.09 | 0.994 | 0.989 | 1.17 | 0.86 | 0.562 | 0.572 | 0.836 | 0.214 | 0.203 | 0.193 | 0.21 | 1.02 | 0.852 | 0.817 | 0.871 | 1.08 | 0.945 | 0.932 | 1.03
IA-LM | 1.22 | 1.22 | 0.951 | 0.987 | 0.355 | 0.353 | 0.426 | 0.566 | – | – | – | – | – | – | – | – | 1.2 | 1.11 | 1.06 | 1.21
LC-2-ad | 0.59 | 0.532 | 0.435 | 0.358 | 0.588 | 0.563 | 0.397 | 0.473 | 0.851 | 0.77 | 0.826 | 0.916 | 0.801 | 0.784 | 0.726 | 0.87 | 1.07 | 1 | 0.874 | 1.05
LCLC-97TM1 | 0.291 | 0.243 | 0.39 | 0.519 | 0.186 | 0.151 | 0.159 | 0.13 | 0.263 | 0.201 | 0.197 | 0.228 | 0.563 | 0.304 | 0.397 | 0.396 | 1.06 | 0.806 | 0.797 | 0.644
LCLC-103H | – | – | – | – | 0.737 | 0.618 | 0.558 | 0.622 | 0.765 | 0.746 | 0.691 | 0.721 | 0.513 | 0.435 | 0.442 | 0.41 | 1.06 | 0.935 | 0.951 | 1.02
NCI-H358 | – | – | – | – | 0.374 | 0.294 | 0.327 | 0.322 | 0.226 | 0.191 | 0.217 | 0.194 | 1.02 | 0.722 | 0.782 | 0.488 | 1.01 | 0.869 | 0.843 | 0.913
NCI-H522 | – | – | – | – | – | – | – | – | 0.592 | 0.652 | 0.667 | 0.636 | 0.796 | 0.695 | 0.685 | 0.828 | 1.27 | 0.891 | 0.882 | 0.886
NCI-H650 | – | – | – | – | 0.976 | 0.888 | 0.741 | 0.845 | 0.288 | 0.313 | 0.242 | 0.292 | 0.578 | 0.496 | 0.483 | 0.502 | 1.09 | 0.848 | 0.877 | 0.965
NCI-H661 | – | – | – | – | 0.44 | 0.453 | 0.509 | 0.389 | 0.673 | 0.519 | 0.576 | 0.673 | 0.772 | 0.669 | 0.709 | 0.584 | 1.04 | 0.949 | 1.02 | 1.11
NCI-H1703 | 1.08 | 1.05 | 1 | 0.709 | 0.28 | 0.205 | 0.257 | 0.257 | – | – | – | – | – | – | – | – | 0.951 | 0.916 | 0.825 | 0.767
NCI-H2228 | 0.96 | 0.952 | 1.1 | 1.3 | 0.362 | 0.33 | 0.329 | 0.283 | – | – | – | – | 0.73 | 0.517 | 0.434 | 0.322 | 1.18 | 1.1 | 0.811 | 0.447
SW 900 | – | – | – | – | – | – | – | – | 0.467 | – | 0.424 | 0.407 | 0.618 | 0.544 | 0.584 | 0.606 | 1.06 | 0.694 | 0.882 | 0.887
